IC50, EC50 and AC50 data for twelve compounds are collected here from ChEMBL document CHEMBL1201862, “PubChem BioAssay data set” (2004).

Active and inactive are the calls of the source.

For assay [1], the target named is T1, Galanin receptor type 3 (Homo sapiens, UniProt O60755).
T1 sequence (O60755 whole entry): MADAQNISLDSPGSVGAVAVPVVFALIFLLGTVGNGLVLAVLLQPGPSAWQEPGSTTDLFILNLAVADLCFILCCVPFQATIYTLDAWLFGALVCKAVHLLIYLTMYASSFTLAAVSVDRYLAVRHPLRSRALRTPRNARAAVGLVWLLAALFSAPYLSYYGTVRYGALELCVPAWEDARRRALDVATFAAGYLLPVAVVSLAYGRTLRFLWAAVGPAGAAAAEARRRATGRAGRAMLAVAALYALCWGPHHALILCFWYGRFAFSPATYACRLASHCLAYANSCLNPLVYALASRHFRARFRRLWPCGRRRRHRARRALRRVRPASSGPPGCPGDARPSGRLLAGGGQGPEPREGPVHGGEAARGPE
The assay can be described thus: Fluorescence-based cell-based primary high throughput dose response assay to identify antagonists of the Galanin Receptor 3 (GalR3). In kind it is functional.

The nature of assay [2]: cells. The following applies: HEK-CNG. The assay is classed as functional, cell-based.
Assay [3] addresses Protein Wnt-3a (Mus musculus, UniProt P27467). In words: antagonism of Wnt3a pathway luciferase reporter – Wnt-LIGHT cells, luminescence, selectivity assay for Gli-SUFU antagonist project, dose response (AID 651570).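 Further: Wnt-LIGHT reporter cells stimulated with conditioned medium from Wnt3a-producing cells.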 The following applies: read-out: IC50_Mean. In kind it is functional.
Assay [4] in a line: HEK-293T viability loss after treatment – luminescence, T-cell screen hits, cytotoxicity control for TCR NF-kB inhibitor project, dose response (AID 489026).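 Further: cells exposed to compound about 14 hours before the viability readout.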 In kind it is functional, cell-based.
Assay [5] can be described thus: reduction of Shn3 3'UTR-driven luciferase in osteoblasts – cell-based, Clone20 osteoblasts, firefly luciferase, cherry-picked, dose response (AID 624132).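 Further: firefly luciferase luminescence from reporter carrying the Shn3 3'UTR in osteoblasts.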 In kind it is functional.
The nature of assay [6]: A549 cell cytotoxicity, dose response, cytotoxicity control, plate reader, cherry-pick, antagonist series (AID 743412). In kind it is functional, cell-based.
A short description of assay [7]: loss of viability in HepG2 cells – cell-based, CellTiter-Glo, cherry-picked, cytotoxicity control for Shn3 inhibitor project, dose response (AID 624134). The assay is classed as functional. On the technique in general: Cellular ATP, detected with luciferase, serves as a proxy for viable cell number.
Assay [8] can be described thus: blockers of bursicon-stimulated LGR2 cAMP reporter – cell-based, HEK293, CRE-luciferase reporter, cherry pick, set 2, dose response (AID 743343).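 Further: transfected cells were stimulated with diluted bursicon conditioned medium after compound addition.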 In kind it is functional.
The nature of assay [9]: non-specific 3'UTR reporter inhibition in Clone20-Shn3RL – cell-based, Renilla luciferase, cherry-picked, counter-screen for Shn3 inhibitor project, dose response (AID 624133). In kind it is functional. For orientation: The purpose of a counterscreen is to sort out artefacts and off-target activity.
The nature of assay [10]: blockade of melanocortin 4 receptor signaling – cell-based, plate reader, cherry pick, counter-screen for LGR2 antagonist project, dose response (AID 743444).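 Further: transfected HEK 293 cells stimulated with alpha-MSH peptide; potency of inhibitors of the alpha-MSH evoked signal.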 The assay is classed as functional.
In assay [11] the test system is INS1. The assay can be described thus: INS-1E survival protection against cytokine death – cell-based, luminescence, retest, dose response (AID 449756).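 Further: cell death triggered by IL-1 beta plus TNF-alpha plus IFN-gamma mixture; protective hits raise ATP signal compared with cytokine alone wells.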 In kind it is functional. To be noted: Rattus norvegicus.
Assay [12] in a line: toxicity toward HepG2 liver cells – cell-based, plate reader, cherry-pick, antagonist series, cytotoxicity control, dose response (AID 743416). In kind it is functional.
In assay [13] the target is T2, Tyrosine-protein phosphatase non-receptor type 11 (Homo sapiens, UniProt Q06124).
T2 sequence (Q06124 whole entry): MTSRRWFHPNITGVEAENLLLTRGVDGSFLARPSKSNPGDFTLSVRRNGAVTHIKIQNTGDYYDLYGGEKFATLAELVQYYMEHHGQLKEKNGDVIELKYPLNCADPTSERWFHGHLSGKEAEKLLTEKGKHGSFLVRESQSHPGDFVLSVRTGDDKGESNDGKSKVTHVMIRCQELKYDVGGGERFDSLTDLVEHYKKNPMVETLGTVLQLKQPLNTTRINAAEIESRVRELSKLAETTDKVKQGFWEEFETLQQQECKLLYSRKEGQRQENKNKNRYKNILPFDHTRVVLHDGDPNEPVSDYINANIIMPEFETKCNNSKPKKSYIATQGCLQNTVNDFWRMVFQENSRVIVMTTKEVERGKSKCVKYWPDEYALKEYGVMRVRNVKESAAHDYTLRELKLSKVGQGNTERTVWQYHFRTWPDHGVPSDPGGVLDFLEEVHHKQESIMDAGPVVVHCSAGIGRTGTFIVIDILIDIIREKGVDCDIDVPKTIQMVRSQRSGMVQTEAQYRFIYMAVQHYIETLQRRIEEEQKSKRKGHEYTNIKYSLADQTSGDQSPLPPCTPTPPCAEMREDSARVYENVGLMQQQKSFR
In words: PTPN11 enzyme inhibitors – biochemical, selectivity assay for STEP inhibitor project, dose response (AID 602367). The assay is classed as functional. The following applies: read-out: IC50_Mean.

Assay [14] concerns the target Dual specificity protein phosphatase 3 (Homo sapiens, UniProt P51452). In words: VHR phosphatase inhibition, dose response, selectivity assay for STEP inhibitor project, biochemical (AID 602374). In kind it is functional. The following applies: read-out: IC50_Mean.
For assay [15], the target named is T3, Tyrosine-protein phosphatase non-receptor type 5 (Homo sapiens, UniProt P54829).
T3 sequence (P54829 whole entry): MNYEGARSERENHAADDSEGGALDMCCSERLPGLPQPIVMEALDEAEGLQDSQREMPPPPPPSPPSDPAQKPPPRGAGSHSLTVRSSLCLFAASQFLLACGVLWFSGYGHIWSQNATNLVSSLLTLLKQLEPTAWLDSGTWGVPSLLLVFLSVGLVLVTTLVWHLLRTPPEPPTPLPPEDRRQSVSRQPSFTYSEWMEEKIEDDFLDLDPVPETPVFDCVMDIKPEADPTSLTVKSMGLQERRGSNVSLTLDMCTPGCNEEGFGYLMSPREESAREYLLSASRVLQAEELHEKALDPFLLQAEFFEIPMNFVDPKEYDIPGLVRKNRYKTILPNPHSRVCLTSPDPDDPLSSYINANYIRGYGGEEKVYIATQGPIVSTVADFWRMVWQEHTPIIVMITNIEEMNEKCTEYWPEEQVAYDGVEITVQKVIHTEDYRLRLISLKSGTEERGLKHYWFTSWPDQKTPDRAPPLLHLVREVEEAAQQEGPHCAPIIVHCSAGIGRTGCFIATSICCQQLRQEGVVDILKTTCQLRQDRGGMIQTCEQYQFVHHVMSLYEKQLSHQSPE
In words: PTPN5 enzyme inhibition – biochemical, fluorescence intensity, uHTS hits, confirmation (AID 602372). In kind it is functional. To be noted: read-out: IC50_Mean.

Assay [16] concerns the target T4, Small ubiquitin-related modifier 1 (Homo sapiens, UniProt P63165). The assay can be described thus: SUMO1 protein interaction blockers, potency – biochemical, fluorescence polarization, uHTS hits, dose response (AID 624382). The following applies: read-out: IC50_Mean. In kind it is functional. In general terms: In fluorescence polarisation assays a small probe gives low polarisation when free and higher when bound to something large.

Assay [17] addresses T4, Small ubiquitin-related modifier 1. In words: SUMO1 protein-protein binding blockers, potency – biochemical, FRET, dose response (AID 624383). The assay is classed as functional. The following applies: read-out: IC50_Mean.
For assay [18], the target named is T5, Carboxy-terminal domain RNA polymerase II polypeptide A small phosphatase 1 (Homo sapiens, UniProt Q9GZU7).
T5 sequence (Q9GZU7 whole entry): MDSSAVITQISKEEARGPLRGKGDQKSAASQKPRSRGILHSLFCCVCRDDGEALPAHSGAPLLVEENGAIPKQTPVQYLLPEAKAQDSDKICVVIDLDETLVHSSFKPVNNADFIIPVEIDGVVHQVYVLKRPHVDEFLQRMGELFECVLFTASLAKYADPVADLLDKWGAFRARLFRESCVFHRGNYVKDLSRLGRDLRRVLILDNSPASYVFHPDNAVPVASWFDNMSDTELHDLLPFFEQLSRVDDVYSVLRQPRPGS
The assay can be described thus: CTDSP1 inhibitors, concentration-response, biochemical, absorbance readout, ultra-high-throughput screen actives (AID 540297). The assay is classed as functional.
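Wherever EC50 is given: target is galanin receptor GalR3 read with a cAMP biosensor in HEK293 cells.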

Protein Wnt-3a, sequence (P27467 whole entry): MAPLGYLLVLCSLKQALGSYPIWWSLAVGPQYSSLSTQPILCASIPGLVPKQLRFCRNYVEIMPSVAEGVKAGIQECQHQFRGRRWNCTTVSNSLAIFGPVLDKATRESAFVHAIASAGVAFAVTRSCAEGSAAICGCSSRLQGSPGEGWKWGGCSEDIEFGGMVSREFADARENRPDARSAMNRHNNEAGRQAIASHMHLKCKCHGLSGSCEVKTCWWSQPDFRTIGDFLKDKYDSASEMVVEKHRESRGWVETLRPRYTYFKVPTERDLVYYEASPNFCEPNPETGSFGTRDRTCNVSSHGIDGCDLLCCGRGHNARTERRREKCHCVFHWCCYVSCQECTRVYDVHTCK
T4 sequence (P63165 whole entry): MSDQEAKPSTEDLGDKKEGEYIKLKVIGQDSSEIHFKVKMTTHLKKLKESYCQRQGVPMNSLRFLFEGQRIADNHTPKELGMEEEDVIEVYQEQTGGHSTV
Dual specificity protein phosphatase 3, sequence (P51452 whole entry): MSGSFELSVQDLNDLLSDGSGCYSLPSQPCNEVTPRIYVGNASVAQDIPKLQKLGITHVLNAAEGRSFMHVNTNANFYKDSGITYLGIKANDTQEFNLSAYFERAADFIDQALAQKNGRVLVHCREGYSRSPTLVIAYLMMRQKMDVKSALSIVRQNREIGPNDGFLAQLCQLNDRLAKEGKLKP

Usually EC50 stands for the concentration that produces a half-maximal response. `O=C(NCCCl)NNc1c(Cl)cc(Cl)cc1Cl`: in assay [1], the IC50 was > 29.9 µM (inactive). In addition, the EC50 in assay [2] is > 29.9 µM (inactive).
Consider `Cc1ncoc1C(=O)NC1CCCc2c1cnn2-c1ccc(C(C)(C)C)cc1` (stereo not drawn), for which the IC50 was 4.53 µM (active) in [3] and > 80 µM (inactive) in assay [4].
As usually defined, the AC50 is the concentration giving half of the maximal activity seen. Turning to `Cc1cc(C)c(C)c(S(=O)(=O)N2CCN(c3ncnc4ccccc34)CC2)c1C`, the AC50 in assay [5] is 1.46 µM (active); in [6] it was 31.4 µM (active); in assay [7], 1.91 µM (active); in [8] it was 24.9 µM (active); in [9] it was 1.86 µM (active); in assay [10], 34.2 µM (active). In addition, the AC50 in assay [11] was 2.22 µM (active); in assay [12], 4.26 µM (active). Moreover, the IC50 in assay [3] was 1.96 µM (active).
As to `CNS(=O)(=O)c1cccc(C(=O)OCC(=O)c2cc(C)n(CC3CCCO3)c2C)c1` (stereo not drawn), in [3], the IC50 is 28.9 µM (inactive).
Turning to `COc1ccc(N(CC(=O)NCc2cccs2)S(=O)(=O)c2ccc(C(C)=O)cc2)cc1`, in assay [12], the AC50 is > 52 µM (inactive).
For `COc1ccc(C2=CC(c3ccc4c(c3)OCO4)c3c(c4ccccc4oc3=O)O2)cc1OC` (stereo not drawn), in assay [1], the IC50 is 5.72 µM (active). Besides, in [2], the EC50 is > 29.9 µM (inactive).
As to `Cc1sc2nc(CSC(C)C(=O)Nc3ccc(Cl)cn3)nc(O)c2c1C` (stereo not drawn), the IC50 in [13] was 5.47 µM (active); in [14], 0.927 µM (active); in assay [15], 15.6 µM (active).
On to `O=C(Nc1ccc2oc(=O)ccc2c1)c1ccc(-c2ccccc2[N+](=O)[O-])o1`, for which the IC50 in [16] is > 66.6 µM (inactive); in assay [17], 10.2 µM (active).
For `O=C(CSc1nc(C2CC2)nc2ccccc12)Nc1cccc(O)c1`, in that order: > 66.6 µM (inactive) and 20.4 µM (inactive).
Regarding `COc1c(/C=C2\SC(Nc3ccccc3Cl)=NC2=O)cccc1[N+](=O)[O-]`, the IC50 in assay [1] was 0.547 µM (active). Also, the EC50 in [2] is > 29.9 µM (inactive).
Take `CCOC(=O)c1cc(-c2ccc(OC)cc2)nn1-c1ccccc1C(=O)O`: the IC50 in [16] is > 66.6 µM (inactive); in [17] it was 21.8 µM (inactive); in [18], 14.5 µM (active).
With `COc1cccc(Nc2nn3c(=O)c4ccccc4nc3s2)c1`, the IC50 was 9.22 µM (active) in [13], 6.62 µM (active) in assay [14], 12.8 µM (active) in [18] and 24.9 µM (inactive) in assay [15].
